PubChem BioAssay (NCI)
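Method: 48-hour compound exposure of cells in 96-well plates, five concentrations, linear interpolation of endpoints. GI50 is the concentration that inhibits growth by half. TGI: concentration producing complete growth inhibition.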

Experiments:
Experiment in all cases: growth of human tumour cells (NCI), 48 h
SK-MEL-28 melanoma = test system: SK-MEL-28 melanoma
UACC-257 melanoma = test system: UACC-257 melanoma
EKVX NSCLC = test system: EKVX NSCLC
HCC-2998 colon = test system: HCC-2998 colon
IGROV1 ovarian = test system: IGROV1 ovarian
M14 melanoma = test system: M14 melanoma
786-0 renal = test system: 786-0 renal
HS 578T breast = test system: HS 578T breast
CCRF-CEM leukemia = test system: CCRF-CEM leukemia
OVCAR-8 ovarian = test system: OVCAR-8 ovarian
U251 CNS = test system: U251 CNS
BT-549 breast = test system: BT-549 breast
MDA-MB-435 = test system: MDA-MB-435
SK-MEL-2 melanoma = test system: SK-MEL-2 melanoma
RXF 393 renal = test system: RXF 393 renal
MALME-3M melanoma = test system: MALME-3M melanoma
NCI/ADR-RES ovarian = test system: NCI/ADR-RES ovarian
PC-3 prostate = test system: PC-3 prostate
CAKI-1 renal = test system: CAKI-1 renal
UO-31 renal = test system: UO-31 renal
SF-539 CNS = test system: SF-539 CNS
SN12C renal = test system: SN12C renal
SNB-19 CNS = test system: SNB-19 CNS
RPMI-8226 leukemia = test system: RPMI-8226 leukemia
A549 NSCLC = test system: A549 NSCLC
SF-295 CNS = test system: SF-295 CNS
NCI-H522 lung = test system: NCI-H522 lung
HT29 colon = test system: HT29 colon
SR leukemia = test system: SR leukemia
UACC-62 melanoma = test system: UACC-62 melanoma
NCI-H460 lung = test system: NCI-H460 lung
SK-OV-3 ovarian = test system: SK-OV-3 ovarian
DU-145 prostate = test system: DU-145 prostate
MDA-MB-231 breast = test system: MDA-MB-231 breast
ACHN renal = test system: ACHN renal
SW-620 colon = test system: SW-620 colon
T-47D breast = test system: T-47D breast
SF-268 CNS = test system: SF-268 CNS
NCI-H226 lung = test system: NCI-H226 lung
COLO 205 colon = test system: COLO 205 colon
HOP-62 NSCLC = test system: HOP-62 NSCLC
A498 renal = test system: A498 renal
MCF7 breast = test system: MCF7 breast
OVCAR-3 ovarian = test system: OVCAR-3 ovarian
TK-10 renal = test system: TK-10 renal
OVCAR-5 ovarian = test system: OVCAR-5 ovarian
HL-60(TB) leukemia = test system: HL-60(TB) leukemia
MOLT-4 leukemia = test system: MOLT-4 leukemia
OVCAR-4 ovarian = test system: OVCAR-4 ovarian
K-562 leukemia = test system: K-562 leukemia
HCT-116 colon = test system: HCT-116 colon
HOP-92 NSCLC = test system: HOP-92 NSCLC
NCI-H23 lung = test system: NCI-H23 lung
SK-MEL-5 melanoma = test system: SK-MEL-5 melanoma
SNB-75 CNS = test system: SNB-75 CNS
HCT-15 colon = test system: HCT-15 colon
KM12 colon = test system: KM12 colon

COC1=CC(c2ccc[nH]2)=N/C1=C\c1ccc[nH]1
GI50 (SK-MEL-28 melanoma): 774 nM | TGI (SK-MEL-28 melanoma): 9350 nM | GI50 (UACC-257 melanoma): 375 nM | TGI (UACC-257 melanoma): 9240 nM | GI50 (EKVX NSCLC): 610 nM | TGI (EKVX NSCLC): 16400 nM | GI50 (HCC-2998 colon): 361 nM | TGI (HCC-2998 colon): 9540 nM | GI50 (IGROV1 ovarian): 172 nM | TGI (IGROV1 ovarian): 4700 nM | GI50 (M14 melanoma): 56.2 nM | TGI (M14 melanoma): 629 nM | GI50 (786-0 renal): 192 nM | TGI (786-0 renal): 712 nM | GI50 (HS 578T breast): 292 nM | TGI (HS 578T breast): 3560 nM | GI50 (CCRF-CEM leukemia): 23.1 nM | TGI (CCRF-CEM leukemia): 14000 nM | GI50 (OVCAR-8 ovarian): 232 nM | TGI (OVCAR-8 ovarian): 20500 nM | GI50 (U251 CNS): 379 nM | TGI (U251 CNS): 12400 nM | GI50 (BT-549 breast): 145 nM | TGI (BT-549 breast): 5710 nM | GI50 (MDA-MB-435): 73.7 nM | TGI (MDA-MB-435): 4240 nM | GI50 (SK-MEL-2 melanoma): 218 nM | TGI (SK-MEL-2 melanoma): 809 nM | GI50 (RXF 393 renal): 378 nM | TGI (RXF 393 renal): 2700 nM | GI50 (MALME-3M melanoma): 723 nM | TGI (MALME-3M melanoma): 4250 nM | GI50 (NCI/ADR-RES ovarian): 304 nM | TGI (NCI/ADR-RES ovarian): 13800 nM | GI50 (PC-3 prostate): 158 nM | TGI (PC-3 prostate): 13600 nM | GI50 (CAKI-1 renal): 151 nM | TGI (CAKI-1 renal): 3260 nM | GI50 (UO-31 renal): 77.8 nM | TGI (UO-31 renal): 339 nM | GI50 (SF-539 CNS): 295 nM | TGI (SF-539 CNS): 1870 nM | GI50 (SN12C renal): 433 nM | TGI (SN12C renal): 19700 nM | GI50 (SNB-19 CNS): 3170 nM | TGI (SNB-19 CNS): 18400 nM | GI50 (RPMI-8226 leukemia): 65.1 nM | TGI (RPMI-8226 leukemia): 570 nM | GI50 (A549 NSCLC): 201 nM | TGI (A549 NSCLC): 12600 nM | GI50 (SF-295 CNS): 580 nM | TGI (SF-295 CNS): 3170 nM | GI50 (NCI-H522 lung): 284 nM | TGI (NCI-H522 lung): 2680 nM | GI50 (HT29 colon): < 13 nM | TGI (HT29 colon): 3930 nM | GI50 (SR leukemia): 22.2 nM | TGI (SR leukemia): 1310 nM | GI50 (UACC-62 melanoma): 219 nM | TGI (UACC-62 melanoma): 516 nM | GI50 (NCI-H460 lung): 59.5 nM | TGI (NCI-H460 lung): 10900 nM | GI50 (SK-OV-3 ovarian): 5370 nM | TGI (SK-OV-3 ovarian): 18600 nM | GI50 (DU-145 prostate): 163 nM | TGI (DU-145 prostate): 13300 nM | GI50 (MDA-MB-231 breast): 110 nM | TGI (MDA-MB-231 breast): 14600 nM | GI50 (ACHN renal): 226 nM | TGI (ACHN renal): 11300 nM | GI50 (SW-620 colon): 39.3 nM | TGI (SW-620 colon): 13800 nM | GI50 (T-47D breast): 151 nM | TGI (T-47D breast): 1770 nM | GI50 (SF-268 CNS): 254 nM | TGI (SF-268 CNS): 15900 nM | GI50 (NCI-H226 lung): 363 nM | TGI (NCI-H226 lung): 12400 nM | GI50 (COLO 205 colon): 89.7 nM | TGI (COLO 205 colon): 5700 nM | GI50 (HOP-62 NSCLC): 270 nM | TGI (HOP-62 NSCLC): 9270 nM | GI50 (A498 renal): 3650 nM | TGI (A498 renal): 14400 nM | GI50 (MCF7 breast): 346 nM | TGI (MCF7 breast): 11900 nM | GI50 (OVCAR-3 ovarian): 96.4 nM | TGI (OVCAR-3 ovarian): 3800 nM | GI50 (TK-10 renal): 232 nM | TGI (TK-10 renal): 7790 nM | GI50 (OVCAR-5 ovarian): 683 nM | TGI (OVCAR-5 ovarian): 13700 nM | GI50 (HL-60(TB) leukemia): 67.2 nM | TGI (HL-60(TB) leukemia): 3390 nM | GI50 (MOLT-4 leukemia): 31.7 nM | TGI (MOLT-4 leukemia): 33700 nM | GI50 (OVCAR-4 ovarian): 316 nM | TGI (OVCAR-4 ovarian): 13300 nM | GI50 (K-562 leukemia): 273 nM | TGI (K-562 leukemia): > 32700 nM | GI50 (HCT-116 colon): 23.8 nM | GI50 (HOP-92 NSCLC): 199 nM | TGI (HOP-92 NSCLC): 1260 nM | GI50 (NCI-H23 lung): 2100 nM | TGI (NCI-H23 lung): 19100 nM | GI50 (SK-MEL-5 melanoma): 64 nM | TGI (SK-MEL-5 melanoma): 261 nM | GI50 (SNB-75 CNS): 188 nM | TGI (SNB-75 CNS): 1830 nM | GI50 (HCT-15 colon): 33.7 nM | TGI (HCT-15 colon): 12300 nM | GI50 (KM12 colon): 69.8 nM | TGI (KM12 colon): 12800 nM
